Columns and labels:
[1] = system: osteoarthritis of the knee; experiment: Second Phase 2 study: Subject Global Impression of Change (SGIC); assay type: in vivo, human; settings: Week 12; for SGIC, Good and Very good / SGIC, Poor and Very Poor / SGIC, fair: all subjects
Text: (§1) 4.9.2. Secondary Efficacy Endpoints: • 1. Change from Baseline in the WOMAC (VAS) pain subscale score for the target knee at 2, 8, and 12 weeks of treatment; • 2. Change from Baseline in the WOMAC (VAS) stiffness subscale scores for the target knee and WOMAC (VAS) functional ability subscale scores at 2, 4, 8, and 12 weeks of treatment; • 3. Change from Baseline in the overall WOMAC (VAS) score at 2, 4, 8, and 12 weeks of treatment; • 4. Subject's global assessment of disease status of the target knee at 2, 4, 8, and 12 weeks of treatment; • 5. Subject's global assessment of response to therapy of the target knee at 2, 4, 8, and 12 weeks of treatment; • 6. Amount of rescue medication (acetaminophen) consumed per day for target knee pain.

[2] = system: osteoarthritis of the knee; experiment: Second Phase 2 study: WOMAC difficulty performing daily activities (functional ability) subscale score; assay type: in vivo, human
Text: This is a Phase 2, multicenter, randomized, double blind (within dose), Ibuprofen-placebo controlled, parallel group, dose range finding study to evaluate the efficacy, safety, and PK of 2-(diethylamino)ethyl 2-(4-isobutylphenyl)propionate spray in adult subjects with clinically symptomatic OA of the knee. For subjects with bilateral knee pain, both knees will be treated, but the most symptomatic knee (ie, the most painful knee as measured by the Western Ontario and McMaster University Osteoarthritis Index [WOMAC® 3.1] pain subscale score at Screening) will be designated as the target knee for efficacy analyses. For subjects with unilateral knee pain, only the symptomatic (target) knee will be treated.
The VAS version of the WOMAC will be used for the Primary and Secondary Efficacy Endpoints. Efficacy endpoints will be assessed at Screening and Baseline (Day 1) and at the Week 2, Week 4, Week 8, and Week 12/EOS visits.
as §1
The Secondary Efficacy Endpoints, change from Baseline in the WOMAC subscale scores for pain, stiffness, and functional ability, and overall WOMAC score at 2, 4, 8, and 12 weeks of treatment, will be analyzed using the same methods as for the Primary Efficacy Endpoint.

[3] = 4.375 mg/knee BID (n = 23), first 130 subjects
[4] = 8.75 mg/knee BID (n = 24), first 130 subjects
[5] = 17.5 mg/knee BID (n = 19), first 130 subjects
[6] = 17.5 mg/knee BID, Week 12, first 130 subjects
[7] = Week 12, 4.375 mg/knee BID (n = 23), first 130 subjects
[8] = Week 12, 8.75 mg/knee BID (n = 24), first 130 subjects
[9] = Week 12, 17.5 mg/knee BID (n = 19), first 130 subjects
[10] = all subjects, 4.375 mg/knee BID, n = 49, Week 12
[11] = all subjects, 8.75 mg/knee BID, n = 54, Week 12
[12] = all subjects, 17.5 mg/knee BID, n = 52, Week 12

CCN(CC)CCOC(=O)C(C)c1ccc(CC(C)C)cc1 (stereo not shown) [2-(diethylamino)ethyl 2-(4-isobutylphenyl)propionate]
Subject's satisfaction rate (SGIC good and very good) ([1]; 17.5 mg/knee BID, first 130 subjects): 73.7%
SGIC: Good and Very good [1, 3]: 39.1%
SGIC: Poor and Very Poor [1, 3]: 4.3%
SGIC: fair [1, 3]: 56.5%
SGIC: Good and Very good [1, 4]: 37.5%
SGIC: Poor and Very Poor [1, 4]: 16.7%
SGIC: fair [1, 4]: 45.8%
SGIC: Good and Very good [1, 5]: 73.7%
SGIC: Poor and Very Poor [1, 5]: 5.3%
SGIC: fair [1, 5]: 21.1%
SGIC, Good and Very good ([1]; 4.375 mg/knee BID, n = 49): 32.7%
SGIC, Poor and Very Poor ([1]; 4.375 mg/knee BID, n = 49): 10.2%
SGIC, fair ([1]; 4.375 mg/knee BID, n = 49): 57.1%
SGIC, Good and Very good ([1]; 8.75 mg/knee BID, n = 54): 46.3%
SGIC, Poor and Very Poor ([1]; 8.75 mg/knee BID, n = 54): 16.7%
SGIC, fair ([1]; 8.75 mg/knee BID, n = 54): 37.0%
SGIC, Good and Very good ([1]; 17.5 mg/knee BID, n = 52): 61.5%
SGIC, Poor and Very Poor ([1]; 17.5 mg/knee BID, n = 52): 5.8%
SGIC, fair ([1]; 17.5 mg/knee BID, n = 52): 32.7%
WOMAC functional ability, difference from oral ibuprofen [2, 6]: −15.6
WOMAC functional ability, difference from placebo [2, 6]: −19.1
WOMAC Difficulty Performing Daily Activities Subscale Score, Day 1, Avg. ([2]; Avg. of all patients (blinded), Low Dose (2 spray/knee, 8.75 mg/knee) Cohort, Day 1): 60.4
WOMAC Difficulty Performing Daily Activities Subscale Score, Follow-up, Avg. ([2]; Avg. of all patients (blinded), Low Dose (2 spray/knee, 8.75 mg/knee) Cohort, Follow-up): 40.1
WOMAC Difficulty Performing Daily Activities Subscale Score, Week 2, Avg. ([2]; Avg. of all patients (blinded), Low Dose (2 spray/knee, 8.75 mg/knee) Cohort, Week 2): 49.8
WOMAC Difficulty Performing Daily Activities Subscale Score, Week 4, Avg. ([2]; Avg. of all patients (blinded), Low Dose (2 spray/knee, 8.75 mg/knee) Cohort, Week 4): 44.0
WOMAC Difficulty Performing Daily Activities Subscale Score, Week 8, Avg. ([2]; Avg. of all patients (blinded), Low Dose (2 spray/knee, 8.75 mg/knee) Cohort, Week 8): 41.1
WOMAC Difficulty Performing Daily Activities Subscale Score, Week 12, Avg. ([2]; Avg. of all patients (blinded), Low Dose (2 spray/knee, 8.75 mg/knee) Cohort, Week 12): 39.8
WOMAC Difficulty Performing Daily Activities Subscale Scores, Baseline (LS Mean) [2, 3]: 60.2 mm
WOMAC Difficulty Performing Daily Activities Subscale Scores, Baseline (LS Mean) [2, 4]: 61.6 mm
WOMAC Difficulty Performing Daily Activities Subscale Scores, Baseline (LS Mean) [2, 5]: 63.9 mm
WOMAC Difficulty Performing Daily Activities Subscale Scores, % of improvement from Oral Ibuprofen [2, 7]: −10.9%
WOMAC Difficulty Performing Daily Activities Subscale Scores, % of improvement from Placebo [2, 7]: −14.2%
WOMAC Difficulty Performing Daily Activities Subscale Scores, % of improvement from baseline [2, 7]: −43.9%
WOMAC Difficulty Performing Daily Activities Subscale Scores, Changes from Baseline (LS Mean) [2, 7]: −26.4 mm
WOMAC Difficulty Performing Daily Activities Subscale Scores, Different from oral ibuprofen (LS Mean) [2, 7]: −4.8 mm
WOMAC Difficulty Performing Daily Activities Subscale Scores, Different from placebo (LS Mean) [2, 7]: −8.3 mm
WOMAC Difficulty Performing Daily Activities Subscale Scores, Week 12 (LS Mean) [2, 7]: 33.8 mm
WOMAC Difficulty Performing Daily Activities Subscale Scores, % of improvement from Oral Ibuprofen [2, 8]: −12.5%
WOMAC Difficulty Performing Daily Activities Subscale Scores, % of improvement from Placebo [2, 8]: −15.9%
WOMAC Difficulty Performing Daily Activities Subscale Scores, % of improvement from baseline [2, 8]: −45.6%
WOMAC Difficulty Performing Daily Activities Subscale Scores, Changes from Baseline (LS Mean) [2, 8]: −28.1 mm
WOMAC Difficulty Performing Daily Activities Subscale Scores, Different from oral ibuprofen (LS Mean) [2, 8]: −6.6 mm
WOMAC Difficulty Performing Daily Activities Subscale Scores, Different from placebo (LS Mean) [2, 8]: −10.0 mm
WOMAC Difficulty Performing Daily Activities Subscale Scores, Week 12 (LS Mean) [2, 8]: 33.4 mm
WOMAC Difficulty Performing Daily Activities Subscale Scores, % of improvement from Oral Ibuprofen [2, 9]: −25.2%
WOMAC Difficulty Performing Daily Activities Subscale Scores, % of improvement from Placebo [2, 9]: −28.5%
WOMAC Difficulty Performing Daily Activities Subscale Scores, % of improvement from baseline [2, 9]: −58.2%
WOMAC Difficulty Performing Daily Activities Subscale Scores, Changes from Baseline (LS Mean) [2, 9]: −37.2 mm
WOMAC Difficulty Performing Daily Activities Subscale Scores, Different from oral ibuprofen (LS Mean) [2, 9]: −15.6 mm
WOMAC Difficulty Performing Daily Activities Subscale Scores, Different from placebo (LS Mean) [2, 9]: −19.1 mm
WOMAC Difficulty Performing Daily Activities Subscale Scores, Week 12 (LS Mean) [2, 9]: 26.7 mm
WOMAC Difficulty Performing Daily Activities Subscale Scores, % of improvement from Oral Ibuprofen [2, 10]: −1.3%
WOMAC Difficulty Performing Daily Activities Subscale Scores, % of improvement from Placebo [2, 10]: −5.6%
WOMAC Difficulty Performing Daily Activities Subscale Scores, % of improvement from baseline [2, 10]: −42.8%
WOMAC Difficulty Performing Daily Activities Subscale Scores, Changes from Baseline (LS Mean) [2, 10]: −25.4 mm
WOMAC Difficulty Performing Daily Activities Subscale Scores, Week 12 (LS Mean) [2, 10]: 33.9 mm
WOMAC Difficulty Performing Daily Activities Subscale Scores, % of improvement from Oral Ibuprofen [2, 11]: −4.6%
WOMAC Difficulty Performing Daily Activities Subscale Scores, % of improvement from Placebo [2, 11]: −8.9%
WOMAC Difficulty Performing Daily Activities Subscale Scores, % of improvement from baseline [2, 11]: −46.1%
WOMAC Difficulty Performing Daily Activities Subscale Scores, Changes from Baseline (LS Mean) [2, 11]: −27.9 mm
WOMAC Difficulty Performing Daily Activities Subscale Scores, Different from oral ibuprofen (LS Mean) [2, 11]: −2.7 mm
WOMAC Difficulty Performing Daily Activities Subscale Scores, Different from placebo (LS Mean) [2, 11]: −6.0 mm
WOMAC Difficulty Performing Daily Activities Subscale Scores, Week 12 (LS Mean) [2, 11]: 32.6 mm
WOMAC Difficulty Performing Daily Activities Subscale Scores, % of improvement from Oral Ibuprofen [2, 12]: −11.0%
WOMAC Difficulty Performing Daily Activities Subscale Scores, % of improvement from Placebo [2, 12]: −15.3%
WOMAC Difficulty Performing Daily Activities Subscale Scores, % of improvement from baseline [2, 12]: −52.5%
WOMAC Difficulty Performing Daily Activities Subscale Scores, Changes from Baseline (LS Mean) [2, 12]: −31.4 mm

From US20240024273A1, “TOPICAL ADMINISTRATION OF 2-(DIETHYLAMINO)ETHYL 2-(4-ISOBUTYLPHENYL)PROPRIONATE FOR TREATMENT OF DISEASES” (TECHFIELDS PHARMA CO., LTD., priority 2020, published 2024)
